According to US20040242669A1, “Method of treating deficits associated with brain injury” (priority 2003, published 2004):
Marks after values point to notes of the source that are not given here.

Tests used:
Assay type in all cases: in vivo, rat
[1] = test system: reduced glutathione in brain areas of rats subjected to hypobaric hypoxia; experiment: Brain glutathione content and redox index after hypobaric hypoxia; details: for reduced glutathione content: mean ± S.E.M.
Procedure: At the end of the behavioral studies, the brain of animals sacrificed by decapitation were taken and rapidly frozen for analysis. Dissection and weighing were carried out at −25° C. The frozen forebrains were immediately powered under liquid nitrogen by an electromechanical apparatus and stored at […]. The assay of reduced and oxidized glutathione by 5,5′-dithibis-(2-nitrobenzoic acid) in frozen forebrain powder was carried out within 3 h, utilizing perchloric acid and N-ethylmaleimide in presence of ethylenediamidetetraacetic acid for the extraction procedure (Tietze, Anal Biochem, 27, 502-522, (1969)).
(§1) In the first experiment, the effects of ropinirole or DHECP were studied on amnesia induced by hypobaric hypoxia in rats. After a 7-day pretreatment with ropinirole, DHECP or saline, a group of animals was subjected to acute hypobaric hypoxia by means of a hypobaric chamber (Chantiers et Ateliers de Bretagne, France) causing depression to 300 mmHg (Boismare et al., Gerentology, 24, 6-13 (1978)). After 3 min in the chamber, the animals were removed and admitted for behavioral testing. Intact control rats were also introduced into the chamber but not subjected to hypobaric hypoxia.
All animals used for hypobaric hypoxia induced amnesia and for chronic brain occlusive ischemia was sacrificed at the end behavioral procedure for biochemical analyses.

[2] = test system: animals with chronic brain occlusive ischemia; experiment: Shuttle-box active avoidance acquisition, chronic brain occlusive ischemia; details: for CARs: chronic brain occlusive ischemia (2 months), mean ± S.E.M.
Procedure: (§2) Male rats of the Sprague-Dawley strain (purchased from Charles River, Italy) weighing 280±20 g were used throughout all experiments. The animals were housed two-three to a cage under a constant light-dark cycle (lights on between 8.00 and 20.00) at 21° C. Commercial food and tap water were available ad libitum. All animals were used only once in the behavioral experiments.
A number of animals were subjected to a manipulation of the four major arteries of the brain with a method similar to that described by Pulsinelli et al., Ann. Neurol, 11, 491-498 (1982). Both vertebral arteries were cauterised under sodium pentobarbital anaesthesia and polyethylene cuffs PE-10 were placed loosely around the common carotid arteries without completely interrupting carotid blood flow. Two months after operation, all surviving animals showing no neurological gross abnormalities were admitted to drug treatment. Animals undergoing a sham operation were considered as controls.
(§3) Ropinirole (ropinirole hydrochloride, SmithKline Beecham, Italy) and dihydroergocryptine (DHECP) α-dihydroergocryptine methanesulfonate, Monsanto, Italy) were dissolved in saline and injected subcutaneously (s.c.) at the dose of 0.5 and 1 mg/kg/day for 7 days. In the experiments with kainate-induced convulsions, ropinirole or DHECP were injected intravenously (i.v.) 30 min prior, and again at the same time of the intracerebroventricular (i.c.v) injection on kainic acid; Control animals received an injection of saline alone with the same procedure.
Academic Press, New York, pp59-775, (1981). Briefly, the rats were trained to avoid the unconditioned stimulus (US) of a scrambled electrical foot-shock (0.20 mA) delivered through the grid floor. The conditioned stimulus (CS) was a buzzer presented for 3 s prior to the US. If no escape occurred within 20 s of CS/US presentation, the shock was terminated. A maximum of 30 conditioning trials were given with a variable intertrial interval averaging 60 s. The learning criterion was five consecutive conditioned avoidance responses (CARs). For those animals that reached the criterion in less than 30 trials, the remaining trials until 30 were considered as CARs. Indexes of avoidance behaviour were the total number of CARs and the percent number of learners per group.
Animals with 2-month chronic brain occlusive ischemia, were subjected to a treatment with ropinirole, DHECP or saline for 7 days. At the end of treatment, the animals were admitted to behavioral testing. Controls were those animals with sham manipulation of brain arteries.

[3] = test system: animals with hypobaric hypoxia-induced amnesia; experiment: Open field spontaneous motor activity, hypobaric hypoxia; details: for Ambulation / Defecation / Grooming / Rearing: 5 min open field, mean ± S.E.M.
Procedure: as §2, §3
Spontaneous motor activity was scored in a circular open field arena as described by Weijnen and Slangen, Pituitary, Adrenal and the Brain, pp221-235 (1982). Animals were put inside a circular lit-up arena, with the bottom divided into 27 areas of equal size.
as §1

kainate-induced epilepsy = experiment: Kainate-induced convulsions (epilepsy); details: for Latency (s) to the first tonic-clonic seizure / Seizures (total number) / Mortality (%): kainic acid 10 μg/2 μl i.c.v.; for Latency (s) to the first tonic-clonic seizure / Seizures (total number): 30-min observation, mean ± S.E.M.; for Mortality (%): checked 2 h after convulsive agent
Procedure: as §2
Another group of animals were implanted under ether anaesthesia with a permanent plastic cannula in the right lateral ventricle (foramen interventriculare, Konig and Klippel A 6360) with another cannula into the right jugular vein. These animals were sacrificed at the end of behavioral procedure and the brains were utilized for biochemical analysis. Data were taken from animals showing no abnormalities at the postmortem examination. All experiments were carried out according to the European Community Council Directive 86/609/ECC and efforts were made to minimize animal suffering and to reduce the number of animals used.
as §3, with “[…],” for “ropinirole or DHECP were injected intravenously (i.v.) 30 min prior,”
Kainic acid (Sigma, USA) was dissolved in saline and injected i.c.v. at the dose of 10 μg/2 μi.
Over a 30-min observation, the following items were recorded per each animal receiving an i.c.v. injection of kainic acid: latency in s to the first tonic-clonic seizure; total number of seizures, percent rate of mortality (checked 2 h after the administration of the convulsive agent).
Behavioral scoring of kainate-induced convulsions was started immediately after i.c.v. injection of the drug and proceeded for 30 min. Ropinirole, DHECP or saline were injected twice, 30 min prior and, again, at the same time of the i.c.v. administration of kainic acid.

[4] = kainate-induced seizures, summary of Table 3

## CC(C)C[C@H]1C(=O)N2CCC[C@H]2[C@]2(O)O[C@](NC(=O)[C@@H]3C[C@@H]4c5cccc6[nH]cc(c56)C[C@H]4N(C)C3)(C(C)C)C(=O)N12 [DHECP, α-dihydroergocryptine methanesulfonate]
[1]; Cortex, 0.5 mg/kg
  glutathione redox index (glutathione reduced/glutathione oxidized ratio): 2.5
  reduced glutathione content: 2.2 ± 0.2 mM
[1]; Cortex, 1 mg/kg
  glutathione redox index (glutathione reduced/glutathione oxidized ratio): 2.3
  reduced glutathione content: 2.5 ± 0.2 mM
[1]; Hippocampus, 0.5 mg/kg
  glutathione redox index (glutathione reduced/glutathione oxidized ratio): 1.8
  reduced glutathione content: 2.1 ± 0.2 mM
[1]; Hippocampus, 1 mg/kg
  glutathione redox index (glutathione reduced/glutathione oxidized ratio): 2.2
  reduced glutathione content: 2.4 ± 0.2 mM
[1]; Hypothalamus, 0.5 mg/kg
  glutathione redox index (glutathione reduced/glutathione oxidized ratio): 2.6
  reduced glutathione content: 2.8 ± 0.2 mM
[1]; Hypothalamus, 1 mg/kg
  glutathione redox index (glutathione reduced/glutathione oxidized ratio): 2.8
  reduced glutathione content: 2.8 ± 0.2 mM
[1]; Striatum, 0.5 mg/kg
  glutathione redox index (glutathione reduced/glutathione oxidized ratio): 0.7
  reduced glutathione content: 1.8 ± 0.2 mM
[1]; Striatum, 1 mg/kg
  glutathione redox index (glutathione reduced/glutathione oxidized ratio): 1.7
  reduced glutathione content: 2.5 ± 0.2 mM
[1]; cortex, hippocampus and hypothalamus, both doses
  reduced glutathione content and glutathione redox index (effect of treatment, in words): increase
[1]; striatum
  reduced glutathione content and glutathione redox index (effect of treatment, in words): only with the greater dose
[2]; 0.5 mg/kg/day s.c. for 7 days
  CARs: 10.6 ± 1.1^a
[2]; 1 mg/kg/day s.c. for 7 days
  CARs: 14.1 ± 1.1^a
[2]; chronic brain occlusive ischemia, 0.5 mg/kg/day s.c. for 7 days
  Learners: 20^b percent
[2]; chronic brain occlusive ischemia, 1 mg/kg/day s.c. for 7 days
  Learners: 10^b percent
[2]; chronic brain occlusive ischemia, Table 2
  cognitive parameters of the active avoidance test (effect of treatment, in words): No statistically significant change
[3]; 0.5 mg/kg/day s.c. for 7 days
  Ambulation: 68.9 ± 6.6^b
  Defecation: 3.4 ± 0.9
  Grooming: 22.2 ± 2.3
  Rearing: 16.4 ± 1.3^a,b
[3]; 1 mg/kg/day s.c. for 7 days
  Ambulation: 73.1 ± 5.6^a,b
  Defecation: 3.7 ± 1.3
  Grooming: 23.3 ± 2.1
  Rearing: 16.5 ± 1.9^b
[3]; vs intact controls and saline-treated hypoxic animals
  ambulation and rearing (effect of treatment, in words): higher
kainate-induced epilepsy; [4]
  latency to the first tonic-clonic seizure (effect of treatment, in words): did not modify
  percent mortality rate (effect of treatment, in words): significant decrease
  total number of kainate-induced seizures (effect of treatment, in words): did not modify
kainate-induced epilepsy; 0.5 mg/kg injected s.c. twice (30 min prior and at kainic acid)
  Latency (s) to the first tonic-clonic seizure: 56.9 ± 8.5 s
kainate-induced epilepsy; 0.5 mg/kg injected s.c. twice
  Seizures (total number): 7.8 ± 1.0
  Mortality (%): 10^a %
kainate-induced epilepsy; 1 mg/kg injected s.c. twice (30 min prior and at kainic acid)
  Latency (s) to the first tonic-clonic seizure: 69.2 ± 6.5 s
kainate-induced epilepsy; 1 mg/kg injected s.c. twice
  Seizures (total number): 5.7 ± 1.1
  Mortality (%): 10^a %
